# Measurements from patent EP2990408B1, “NOVEL WHITENING AGENT” (Nichirei Biosciences Inc., priority 2013, dated 2014).
# Where two headings read alike, the source gives them in different places.
# Experiments:
# [1] = Stability test in aqueous citrate buffer solution (reversed-phase HPLC quantification); format: physicochemical; details: for percentages of compounds remaining in the test solutions after storage: 3 weeks, 20 mM citrate buffer solution (pH 6.0), 0.1% (weight/volume)
# Protocol: 3H2P phosphate monoester (1) (not according to the invention) and 3H2P phosphate bisester (2) (according to the invention) in the form of free acid were dissolved in a 20 mM citrate buffer solution (pH 6.0) to a concentration of 0.1% (weight/volume). The test solutions were stored at 4°C, 25°C, or 40°C for 3 weeks. 3H2P phosphate monoester (1) or 3H2P phosphate bisester (2) contained in the stored test solutions were quantitatively analyzed via reversed-phase HPLC (Inertsil® ODS-3, 5 µm, 4.6 × 250 mm, GL Sciences). For comparative example, the similar test was carried out in the manner described above with the use of 3H2P. […]
# [2] = system: Mouse-derived B16 melanoma cells 4A5; experiment: Test for melanin production inhibition; format: cell-based; details: for melanin amount relative to the melanin amount of the control group: concentration of 5 µg/ml, control group = 100, day 6 of culture; for melanin production inhibitory activity: concentrations of 1, 5, and 10 µg/ml, compared with 3H2P and arbutin, Fig. 1; for melanin production inhibitory activity, free acid compared with triethylamine salt: free acid (Fig. 1A) vs triethylamine salt (Fig. 1B)
# Protocol: Mouse-derived B16 melanoma cells 4A5 (RIKEN) were seeded on a 6-well plate with the use of DMEM medium containing 10% FBS to a cell density of 5.0 × 10^4 cells/well (day 0 of culture), and culture was conducted at 37°C in the presence of 5% CO2 for 24 hours. On the following day, the cell-seeded medium was exchanged with a medium supplemented with the test compound at a given concentration (day 1 of culture). The medium was exchanged with a fresh medium every other day from day 2 and thereafter. The cells were recovered via treatment with trypsin on day 6 of culture, and melanin was extracted using an aqueous solution of 1 N sodium hydroxide. The absorbance of the melanin extract was measured at 405 nm, and the melanin amount was determined using a calibration curve prepared with the use of a melanin standard sample. In addition, the protein amount of the cells recovered in the manner described below was determined using the DC Protein Assay Kit (BIO-RAD) and employed as the cell count index. […] In the figure, the melanin amount and the cell count of test groups to which the test compounds had been added are represented relative to the measured melanin amount and cell count of the control group to which no test compound had been added (concentration: 0), which is designated as 100.
# tyrosinase = experiment: Test of tyrosinase activity inhibition (L-DOPA substrate, absorbance at 475 nm); format: biochemical; details: Fig. 2; for tyrosinase inhibitory activity compared with 3H2P: at the same concentration as 3H2P; for tyrosinase inhibitory activity: free acid, concentration of 0.1 to 0.5 mg/ml
# Protocol: A solution of 6 mM L-DOPA, an aqueous solution of the test compound adjusted to a given concentration, and a phosphate buffer (pH 6.8) were mixed at a ratio of 2:2:1 by volume. The resulting substrate mixture (1.0 ml) was mixed with 0.2 ml of a solution of 0.017 mg/ml tyrosinase (Sigma), and the enzyme reaction was initiated at 37°C. The absorbance of the enzyme reaction solution was measured at 475 nm 0 and 3 minutes after the initiation of the reaction. The test group subjected to the enzyme reaction in the same manner described above, except that the test compound was not included, was designate as the blank test group. On the basis of the measured absorbance, the inhibition rate of tyrosinase activity was determined using the formula shown below. […] Inhibition rate of tyrosinase activity (%) = (1−(The difference in the absorbance of the test compound in the enzyme reaction solution between 0 minutes and 3 minutes after the initiation of the reaction)/(The difference in the absorbance of the blank in the enzyme reaction solution between 0 min and 3 min)) × 100 [formula]
SMILES,"stability in weak-acidic to neutral water, compared with non-phosphorylated 3H2P [1]",melanin amount relative to the melanin amount of the control group [2],melanin production inhibitory activity [2],"melanin production inhibitory activity, free acid compared with triethylamine salt [2]",tyrosinase inhibitory activity compared with 3H2P (tyrosinase),tyrosinase inhibitory activity (tyrosinase),percentages of compounds remaining in the test solutions after storage ([1]; 4°C),percentages of compounds remaining in the test solutions after storage ([1]; 25°C),percentages of compounds remaining in the test solutions after storage ([1]; 40°C),"stability in weak-acidic to neutral water, compared with non-phosphorylated 3H2P ([1]; summary in words of Table 1)"
"O=c1occcc1OP(=O)(O)O [3H2P phosphate monoester (1), 3-hydroxy-2-pyrone phosphate monoester]",remarkably improved stability,approximately 50%,slightly lower than that of 3H2P but equivalent to that of arbutin,approximately equivalent melanin production inhibitory activity,lower than the tyrosinase inhibitory activity of 3H2P,low tyrosinase inhibitory activity,,,,
"O=c1occcc1O [Compound 3H2P, 3-hydroxy-2-pyrone, reference compound]",,,,,,,98.4%,87.3%,53.2%,
"O=c1occcc1OP(=O)(O)Oc1cccoc1=O [3H2P phosphate bisester (2), 3-hydroxy-2-pyrone phosphate bisester]",,approximately 50%,slightly lower than that of 3H2P but equivalent to that of arbutin,approximately equivalent melanin production inhibitory activity,lower than the tyrosinase inhibitory activity of 3H2P,low tyrosinase inhibitory activity,100%,100%,99.3%,remarkably improved stability
